Test results taken from US20240252488A1 (KOREA RESEARCH INSTITUTE OF CHEMICAL TECHNOLOGY, priority 2020, published 2024).

Experiments:
[1] = tested on: FADD−/− Jurkat cells; assay: Necroptosis inhibition assay, TNF-α-induced necroptosis (CellTiter-Glo 2.0); assay type: cell-based, human; settings: TNF-α 15 ng/mL; for Necroptosis inhibition assay (Rescue %) 1 μM: compound 1 μM; for Necroptosis inhibition assay (Rescue %) 10 μM: compound 10 μM
Outline: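 Tested at three fixed concentrations (0.1, 1, 10 μM final) with a 30-minute room-temperature preincubation ahead of 15 ng/mL TNF-α challenge lasting 20 to 24 hours. Inhibition rate and cytotoxicity derive from ATP luminescence.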

[2] = biological target: T1, MLKL (Homo sapiens, UniProt Q8NB16); assay: MLKL degradation assay in HepG2 cell line (western blot); assay type: cell-based; parameters: endogenous in cells; host or cells: HepG2 or HaCaT; settings: cell line not given; for Degradation assay (Degradation %) 1 μM: compound 1 μM; for Degradation assay (Degradation %) 10 μM: compound 10 μM
T1 sequence (Q8NB16 1-471): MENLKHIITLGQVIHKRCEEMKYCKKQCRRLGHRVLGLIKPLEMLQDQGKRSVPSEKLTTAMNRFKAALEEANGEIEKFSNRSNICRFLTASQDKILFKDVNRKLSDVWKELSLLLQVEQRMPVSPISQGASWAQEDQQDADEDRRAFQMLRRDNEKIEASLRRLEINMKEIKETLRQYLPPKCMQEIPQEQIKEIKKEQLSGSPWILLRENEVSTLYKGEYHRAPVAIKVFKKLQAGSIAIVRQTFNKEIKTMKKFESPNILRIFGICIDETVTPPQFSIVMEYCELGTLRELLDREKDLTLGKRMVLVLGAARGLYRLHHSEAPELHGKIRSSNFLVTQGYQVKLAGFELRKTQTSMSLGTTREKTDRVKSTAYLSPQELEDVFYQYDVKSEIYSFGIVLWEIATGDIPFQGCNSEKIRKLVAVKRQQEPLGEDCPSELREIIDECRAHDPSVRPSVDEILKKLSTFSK
Outline: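 Degradation is judged from MLKL band intensity on immunoblots of HepG2 lysates taken after 20-24 hours of compound at final 1 or 10 μM.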

[3] = biological target: T1, MLKL; assay: Measurement of binding affinity with MLKL receptor (competitive binding assay, Kd); parameters: made in house; host or cells: HEK 293 cell line (T7 phage in E. coli BL21-derived host is also described)
Outline: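 Competition binding of kinase tagged with DNA for qPCR detection, expressed in HEK 293 cells, against immobilized ligand on beads. Final DMSO 0.9%. Kd derived from kinase amount in eluates measured by qPCR.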

Structure (SMILES) | Necroptosis inhibition assay (Rescue %) 1 μM [1] | Necroptosis inhibition assay (Rescue %) 10 μM [1] | Degradation assay (Degradation %) 1 μM [2] | Degradation assay (Degradation %) 10 μM [2] | Kd [3]
Nc1ncc(-c2cnn(C3CCN(CCCN4CCN(C(=O)CCc5cccc6c5CN(C5CCC(=O)NC5=O)C6=O)CC4)CC3)c2)nc1C(=O)O[C@@H](C(=O)Nc1ccc(F)cc1)c1ccccc1 (stereo partly drawn) [TDH-386, (R)-2-((4-fluorophenyl)amino)-2-oxo-1-phenylethyl 3-amino-6-(1-(1-(3-(4-(3-(2-(2,6-dioxopiperidin-3-yl)-1-oxoisoindolin-4-yl)propanoyl)piperazin-1-yl)propyl)piperidin-4-yl)-1H-pyrazol-4-yl)pyrazine-2-carboxylate] | 34.89% | 20.76% | 79.68% | 71.14% | 0.93 nM
Nc1ncc(-c2cnn(C3CCN(CCOC4CCN(C(=O)CCc5cccc6c5CN(C5CCC(=O)NC5=O)C6=O)CC4)CC3)c2)nc1C(=O)O[C@@H](C(=O)Nc1ccc(F)cc1)c1ccccc1 (stereo partly drawn) [TDH-387, (R)-2-((4-fluorophenyl)amino)-2-oxo-1-phenylethyl 3-amino-6-(1-(1-(2-((1-(3-(2-(2,6-dioxopiperidin-3-yl)-1-oxoisoindolin-4-yl)propanoyl)piperidin-4-yl)oxy)ethyl)piperidin-4-yl)-1H-pyrazol-4-yl)pyrazine-2-carboxylate] | 37.82% | 25.00% | 85.77% | 66.9% | 1.6 nM
Nc1ncc(-c2cnn(C3CCN(C(=O)C4CCN(C(=O)CCc5cccc6c5CN(C5CCC(=O)NC5=O)C6=O)CC4)CC3)c2)nc1C(=O)O[C@@H](C(=O)Nc1ccc(F)cc1)c1ccccc1 (stereo partly drawn) [TDH-388, (R)-2-((4-fluorophenyl)amino)-2-oxo-1-phenylethyl 3-amino-6-(1-(1-(1-(3-(2-(2,6-dioxopiperidin-3-yl)-1-oxoisoindolin-4-yl)propanoyl)piperidine-4-carbonyl)piperidin-4-yl)-1H-pyrazol-4-yl)pyrazine-2-carboxylate] | 22.66% | 22.49% | 68.53% | 80.04% | 2.3 nM
Nc1ncc(-c2cnn(C3CCN(CC4CN(C(=O)COc5ccc6c(c5)C(=O)N(C5CCC(=O)NC5=O)C6=O)CCO4)CC3)c2)nc1C(=O)O[C@@H](C(=O)Nc1ccc(F)cc1)c1ccccc1 (stereo partly drawn) [TDH-390, (R)-2-((4-fluorophenyl)amino)-2-oxo-1-phenylethyl 3-amino-6-(1-(1-((4-(2-((2-(2,6-dioxopiperidin-3-yl)-1,3-dioxoisoindolin-5-yl)oxy)acetyl)morpholin-2-yl)methyl)piperidin-4-yl)-1H-pyrazol-4-yl)pyrazine-2-carboxylate] | 46.50% | 36.13% | 80.07% | 93.00% | 2.6 nM
Nc1ncc(-c2cnn(C3CCN(C(=O)COC4CCN(C(=O)COc5cccc6c5C(=O)N(C5CCC(=O)NC5=O)C6=O)CC4)CC3)c2)nc1C(=O)O[C@@H](C(=O)Nc1ccc(F)cc1)c1ccccc1 (stereo partly drawn) [TDH-393, (R)-2-((4-fluorophenyl)amino)-2-oxo-1-phenylethyl 3-amino-6-(1-(1-(2-((1-(2-((2-(2,6-dioxopiperidin-3-yl)-1,3-dioxoisoindolin-4-yl)oxy)acetyl)piperidin-4-yl)oxy)acetyl)piperidin-4-yl)-1H-pyrazol-4-yl)pyrazine-2-carboxylate] | 27.21% | 38.01% | 73.39% | 82.10% | 0.99 nM
Nc1ncc(-c2cnn(C3CCN(C(=O)COC4CCN(C(=O)COc5ccc6c(c5)C(=O)N(C5CCC(=O)NC5=O)C6=O)CC4)CC3)c2)nc1C(=O)O[C@@H](C(=O)Nc1ccc(F)cc1)c1ccccc1 (stereo partly drawn) [TDH-394, (R)-2-((4-fluorophenyl)amino)-2-oxo-1-phenylethyl 3-amino-6-(1-(1-(2-((1-(2-((2-(2,6-dioxopiperidin-3-yl)-1,3-dioxoisoindolin-5-yl)oxy)acetyl)piperidin-4-yl)oxy)acetyl)piperidin-4-yl)-1H-pyrazol-4-yl)pyrazine-2-carboxylate] | 47.22% | 53.54% | 60.83% | 94.76% | 2.8 nM
Nc1ncc(-c2cnn(C3CCN(C(=O)COC4CCN(C(=O)CNc5cccc6c5C(=O)N(C5CCC(=O)NC5=O)C6=O)CC4)CC3)c2)nc1C(=O)O[C@@H](C(=O)Nc1ccc(F)cc1)c1ccccc1 (stereo partly drawn) [TDH-395, (R)-2-((4-fluorophenyl)amino)-2-oxo-1-phenylethyl 3-amino-6-(1-(1-(2-((1-((2-(2,6-dioxopiperidin-3-yl)-1,3-dioxoisoindolin-4-yl)glycyl)piperidin-4-yl)oxy)acetyl)piperidin-4-yl)-1H-pyrazol-4-yl)pyrazine-2-carboxylate] | 34.73% | 37.15% | 88.76% | 89.67% | 6.1 nM
Nc1ncc(-c2cnn(C3CCN(C(=O)COC4CCN(C(=O)CNc5ccc6c(c5)C(=O)N(C5CCC(=O)NC5=O)C6=O)CC4)CC3)c2)nc1C(=O)O[C@@H](C(=O)Nc1ccc(F)cc1)c1ccccc1 (stereo partly drawn) [TDH-396, (R)-2-((4-fluorophenyl)amino)-2-oxo-1-phenylethyl 3-amino-6-(1-(1-(2-((1-((2-(2,6-dioxopiperidin-3-yl)-1,3-dioxoisoindolin-5-yl)glycyl)piperidin-4-yl)oxy)acetyl)piperidin-4-yl)-1H-pyrazol-4-yl)pyrazine-2-carboxylate] | 53.20% | 46.28% | 3.42% | 88.49% | 4.2 nM
Nc1ncc(-c2cnn(C3CCN(C(=O)COC4CCN(C(=O)C5CCN(c6cccc7c6C(=O)N(C6CCC(=O)NC6=O)C7=O)CC5)CC4)CC3)c2)nc1C(=O)O[C@@H](C(=O)Nc1ccc(F)cc1)c1ccccc1 (stereo partly drawn) [TDH-397, (R)-2-((4-fluorophenyl)amino)-2-oxo-1-phenylethyl 3-amino-6-(1-(1-(2-((1-(1-(2-(2,6-dioxopiperidin-3-yl)-1,3-dioxoisoindolin-4-yl)piperidine-4-carbonyl)piperidin-4-yl)oxy)acetyl)piperidin-4-yl)-1H-pyrazol-4-yl)pyrazine-2-carboxylate] | 53.83% | 37.24% | 87.39% | 79.77% | 2.7 nM
Nc1ncc(-c2cnn(C3CCN(C(=O)COC4CCN(C(=O)C5CCN(c6ccc7c(c6)C(=O)N(C6CCC(=O)NC6=O)C7=O)CC5)CC4)CC3)c2)nc1C(=O)O[C@@H](C(=O)Nc1ccc(F)cc1)c1ccccc1 (stereo partly drawn) [TDH-398, (R)-2-((4-fluorophenyl)amino)-2-oxo-1-phenylethyl 3-amino-6-(1-(1-(2-((1-(1-(2-(2,6-dioxopiperidin-3-yl)-1,3-dioxoisoindolin-5-yl)piperidine-4-carbonyl)piperidin-4-yl)oxy)acetyl)piperidin-4-yl)-1H-pyrazol-4-yl)pyrazine-2-carboxylate] | 36.81% | 30.39% | 88.25% | 83.83% | 8.9 nM
Nc1ncc(-c2cnn(C3CCN(C(=O)COC4CCN(c5cccc6c5C(=O)N(C5CCC(=O)NC5=O)C6=O)CC4)CC3)c2)nc1C(=O)O[C@@H](C(=O)Nc1ccc(F)cc1)c1ccccc1 (stereo partly drawn) [TDH-399, (R)-2-((4-fluorophenyl)amino)-2-oxo-1-phenylethyl 3-amino-6-(1-(1-(2-((1-(2-(2,6-dioxopiperidin-3-yl)-1,3-dioxoisoindolin-4-yl)piperidin-4-yl)oxy)acetyl)piperidin-4-yl)-1H-pyrazol-4-yl)pyrazine-2-carboxylate] | 34.21% | 27.35% | 74.40% | 71.63% | 7.6 nM
